# Experimental data: patent US20050020565A1, “CCK-1 receptor modulators” (priority 2003, published 2005)
# Biological target: T1, CCK-1 receptor (Homo sapiens, UniProt P32238)
# T1 construct: expressed in transfected cells; membranes
# T1 sequence (P32238 1-428): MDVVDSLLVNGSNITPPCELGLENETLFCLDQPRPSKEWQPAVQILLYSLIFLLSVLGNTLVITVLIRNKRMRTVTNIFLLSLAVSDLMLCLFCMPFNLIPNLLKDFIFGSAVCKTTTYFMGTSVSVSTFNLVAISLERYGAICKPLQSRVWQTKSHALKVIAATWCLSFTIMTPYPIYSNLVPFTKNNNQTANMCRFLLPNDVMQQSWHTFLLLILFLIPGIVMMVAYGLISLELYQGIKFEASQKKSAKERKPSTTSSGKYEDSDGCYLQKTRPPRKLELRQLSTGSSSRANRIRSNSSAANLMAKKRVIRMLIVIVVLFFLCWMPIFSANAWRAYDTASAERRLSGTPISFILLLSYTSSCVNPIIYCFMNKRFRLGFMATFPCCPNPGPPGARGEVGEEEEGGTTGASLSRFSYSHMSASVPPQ
# Test: CCK-1 receptor radioligand binding assay ([125I]-BH-CCK-8S displacement, membranes of stably transfected CHO-K1 cells)
# Conditions: membranes of CHO-K1 cells stably transfected with CCK-1 receptor, 0.3 μM PD-134,308 present
# Method: CHO-K1 cells that had undergone-stable transfection with the CCK-1 receptor were grown in DMEM supplemented with L-glutamine (2 mM), penicillin (50 units/mL) and streptomycin (50 μg/mL). Cells were cultured under continuous G418 selection (2 mM) and were harvested using a rubber cell scraper. CHO-K1 cells were sub-cultured a maximum of ten times before being reseeded from the original stocks.
# Membranes were prepared from the stably transfected CHO-K1 cells. Frozen cell pellets (−40° C.) were thawed in 14 mL of buffer A (10 mM HEPES, 130 mM NaCl, 4.7 mM KCl, 5 mM MgCl, 1 mM EGTA and 15.4 mg/100 mL bacitracin at pH 7.2), adapted from Harper et al. (Br. J. Pharmacol. (1996) 118, pp 1717-1726). The thawed pellets were homogenized using a Polytron PT-10 (7×1 s). The homogenates were centrifuged for 5 min at 1500 rpm (600×g), and the resulting pellets were discarded. The supernatants were re-centrifuged in order to collect the receptor-membrane pellets (25 min 15,000 rpm; 39,800×g), which were re-suspended in buffer A.
# All assays were conducted in 96-well plates (GF/B millipore filter plates) using buffer A, with 0.3 μM PD-134,308, for the dilutions. The CCK-2 receptor ligand was included to eliminate the contribution of this receptor subtype to the binding. For the optimal cell number determination experiments 20 pM [1251]-BH—CCK-8S (50 μL 60 pM solution) was incubated with a range of cell concentrations (2.5×105 to 12.5×10^5 cells/well) in a total volume of 150 μL. Total binding of [1251]-BH—CCK-8S was determined in the presence of 15 μL of buffer A. Non-specific binding of [1 251]-BH—CCK-8S was determined in the presence of 15 μL of 100 μM 2-naphthalenesulphonyl L-aspartyl-(2-phenethyl)amide (2-NAP: see R. A. Hull et al., Br. J. Pharmacol. (1993) 108, pp 734-740), a CCK-1 receptor selective antagonist that is structurally unrelated to the radioligand [1251]-BH—CCK-8S. The assay preparation was incubated for 1 h at 21±3° C., and then the assay was terminated upon rapid filtration of the preparation under reduced pressure. The loaded filters were washed three times using undiluted PBS (100 μL), and then the residues were transferred to 5 mL scintillation tubes. Bound radioactivity was determined using a gamma counter (count time=1 min). From these experiments a cell concentration of 1 pellet in 40 mL of buffer (2.5×10^6 cells/mL) was chosen for use in other assays (below). To validate the radioligand concentration and incubation time for the assay, saturation and kinetic binding studies were also conducted (see M. F. Morton, The Pharmacological Characterization of Cholecystokinin Receptors in the Human Gastrointestinal Tract. PhD Thesis, University of London, 2000). The affinity of novel compounds was estimated by incubating membrane preparations with 15 μL of competing ligand (0.1 pM-1 mM) for 60 min at 21±3° C. The assay was then terminated according to the procedure outlined above.
# The pKi values were determined using the equation of Cheng and Prusoff (Biochem. Pharmacol. (1973) 22, pp 3099-3108): [formula]
# To circumvent problems associated with computer-assisted data analysis of compounds with low affinity, the data obtained in the current study were weighted according to a method described by Morton (2000). In brief, 100% and 0% specific binding were defined independently using total binding and binding obtained in the presence of a high concentration of the reference antagonist, 2-NAP.
row,SMILES,Ki
1,Cc1ccc(-c2cc(CC(C(=O)O)c3cccc(C)c3)nn2-c2ccc(C)cc2)cc1 (stereo not shown) [Example 40],7.94 nM
2,Cc1cccc(C(Cc2cc(-c3ccc4ccccc4c3)n(-c3cccc[n+]3[O-])n2)C(=O)O)c1 (stereo not shown) [Example 105],316 nM
3,COc1ccc(-n2nc(CC(C(=O)O)c3cccc(C)c3)cc2-c2ccc(C)cc2)cc1 (stereo not shown) [Example 148],15.8 nM
4,O=C(O)/C(=C\c1cc(-c2ccc(Cl)c(Cl)c2)n(-c2cc(Cl)ccc2Cl)n1)c1cccc(Cl)c1 [Example 111],3.98 nM
5,COc1ccc(-n2nc(/C=C(\C(=O)O)c3cccc(C)c3)cc2-c2ccc(Cl)c(Cl)c2)cc1 [Example 120],10 nM
6,Cc1cccc(C(Cc2cc(-c3ccc(Cl)c(Cl)c3)n(-c3ccc(C(C)(C)C)cc3)n2)C(=O)O)c1 (stereo not shown) [Example 275],20 nM
7,Cc1cccc(C(Cc2cc(-c3ccc4ccccc4c3)n(-c3ccccn3)n2)C(=O)O)c1 (stereo not shown) [Example 52],10 nM
8,Cc1cccc([C@H](Cc2cc(-c3ccc(Cl)c(Cl)c3)n(-c3ccc(O)cc3)n2)C(=O)O)c1 [Example 328],20 nM
9,Cc1cccc([C@@H](Cc2cc(-c3ccc4ccccc4c3)n(-c3ccccn3)n2)C(=O)O)c1 [Example 93],251 nM
10,COc1ccc(-n2nc(/C=C(/C(=O)O)c3cccc(C)c3)cc2-c2ccc(Cl)c(Cl)c2)cc1 [Example 75],79.4 nM
11,Cc1cccc(C(Cc2cc(-c3ccc4c(c3)OCO4)n(Cc3ccccc3)n2)C(=O)O)c1 (stereo not shown) [Example 322],39.8 nM
12,Cc1cccc(C(Cc2cc(-c3ccc4ccccc4c3)n(C3CCCCC3)n2)C(=O)O)c1 (stereo not shown) [Example 51],5.01 nM
13,Cc1cccc(C(Cc2cc(-c3ccc4ccccc4c3)n(-c3ccc(C(F)(F)F)cn3)n2)C(=O)O)c1 (stereo not shown) [Example 80],12.6 nM
14,COc1ccc(-n2nc(CC(C(=O)N(C)C)c3cccc(C)c3)cc2-c2ccc(C)cc2)cc1 (stereo not shown) [Example 66],20 nM
15,Cc1ccc(-c2cc(CC(C(=O)O)c3cccc(Cl)c3)nn2-c2ccc(C)cc2)cc1 (stereo not shown) [Example 168],7.94 nM
16,Cc1ccc(-c2cc(CC(C(=O)O)c3cccc(Cl)c3)nn2-c2ccc(Cl)c(Cl)c2)cc1 (stereo not shown) [Example 182],12.6 nM
17,O=C(O)/C(=C\c1cc(-c2ccc(Cl)c(Cl)c2)n(-c2ccccn2)n1)c1cccc(Cl)c1 [Example 110],12.6 nM
18,Cc1cccc(C(Cc2cc(-c3cccnc3)n(-c3ccc(Cl)cc3Cl)n2)C(=O)O)c1 (stereo not shown) [Example 56],50.1 nM
19,COc1ccc(-n2nc(/C=C(/C(=O)O)c3ccc(C)cc3)cc2-c2ccc(Cl)c(Cl)c2)cc1 [Example 363],794 nM
20,Cc1cccc([C@H](Cc2cc(-c3ccc4ccccc4c3)n(-c3ccccn3)n2)C(=O)O)c1 [Example 92],6.31 nM
21,COc1ccc(-n2nc(CC(C(=O)O)c3coc4ccccc34)cc2-c2ccc3c(c2)OCO3)cc1 (stereo not shown) [Example 262],12.6 nM

# The remaining lines, values ahead:
row,Ki,SMILES
1,31.6 nM,Cc1ccc(-c2cc(CC(CSc3ncn[nH]3)c3cccc(C)c3)nn2-c2ccc(C)cc2)cc1 (stereo not shown) [Example 335]
2,20 nM,Cc1cccc(C(Cc2cc(-c3ccc(N(C)C)cc3)n(-c3ccc(OC(F)(F)F)cc3)n2)C(=O)O)c1 (stereo not shown) [Example 287]
3,20 nM,Cc1ccc(-c2cc(CC(C(=O)O)c3cccc(Cl)c3Cl)nn2-c2ccc(Cl)c(Cl)c2)cc1 (stereo not shown) [Example 46]
4,39.8 nM,COc1ccc(-n2nc(C[C@H](C(=O)O)c3cccc4ccccc34)cc2-c2ccc3c(c2)OCO3)cc1 [Example 29]
5,100 nM,COc1ccc(-n2nc(CC(C(=O)O)c3cccc(SC(F)(F)F)c3)cc2-c2ccc(Cl)c(Cl)c2)cc1 (stereo not shown) [Example 334]
6,200 nM,Cc1cccc(C(Cc2cc(-c3ccc4ccccc4c3)[nH]n2)C(=O)O)c1 (stereo not shown) [Example 47]
7,5.01 nM,COc1cc(-c2cc(CC(C(=O)O)c3cccc(C)c3)nn2-c2ccc(C)cc2)ccc1C (stereo not shown) [Example 60]
8,20 nM,Cc1ccc(-c2cc(CC(C(=O)O)c3cccc(I)c3)nn2-c2ccc(Cl)c(Cl)c2)cc1 (stereo not shown) [Example 24]
9,12.6 nM,COc1cccc(C(Cc2cc(-c3ccc(C)cc3)n(-c3ccc(C(F)(F)F)cc3)n2)C(=O)O)c1 (stereo not shown) [Example 177]
10,63.1 nM,Cc1cccc(C(Cc2cc(-c3ccc4ccccc4c3)nn2Cc2ccccc2)C(=O)O)c1 (stereo not shown) [Example 83]
11,12.6 nM,COc1ccc(-n2nc(CC(C(=O)O)c3cccc(OC)c3)cc2-c2ccc(Cl)c(Cl)c2)cc1 (stereo not shown) [Example 211]
12,3.16 nM,Cc1ccc(-n2nc(CC(C(=O)O)c3cccc(C)c3)cc2-c2ccc(N(C)C)cc2)cc1 (stereo not shown) [Example 59]
13,126 nM,Cc1cccc(C(Cc2cc(-c3cccc4ccccc34)nn2-c2ccccn2)C(=O)O)c1 (stereo not shown) [Example 79]
14,50.1 nM,COc1ccc(-n2nc(CC(C(=O)O)c3cn(C)c4ccccc34)cc2-c2ccc(C)cc2)cc1 (stereo not shown) [Example 72]
15,39.8 nM,COc1ccc(-n2nc(CC(C(=O)O)c3cccc(Cl)c3)cc2-c2ccc(Oc3ccccc3)cc2)cc1 (stereo not shown) [Example 246]
16,50.1 nM,COc1ccc(-n2nc(CC(C(=O)NC3CCCCC3O)c3cccc(C)c3)cc2-c2ccc(C)cc2)cc1 (stereo not shown) [Example 64]

row,Ki,SMILES
1,79.4 nM,Cc1ccc(-c2cc(CC(C(=O)O)c3cccc(SC(F)(F)F)c3)nn2-c2ccc(Cl)c(Cl)c2)cc1 (stereo not shown) [Example 26]
2,12.6 nM,COc1cccc(C(Cc2cc(-c3ccc(C)cc3)n(-c3ccc(Cl)cc3)n2)C(=O)O)c1 (stereo not shown) [Example 157]
3,7.94 nM,COc1cccc(C(Cc2cc(-c3ccc(C)cc3)n(-c3ccc(C)cc3)n2)C(=O)O)c1 (stereo not shown) [Example 170]
4,39.8 nM,COc1ccc(-n2nc(/C=C(/C(=O)O)c3ccc(Cl)c(Cl)c3)cc2-c2ccc(Cl)c(Cl)c2)cc1 [Example 124]
5,10 nM,Clc1cccc(C(Cc2cc(-c3ccc4c(c3)OCO4)n(-c3cc(Cl)ccc3Cl)n2)c2nnn[nH]2)c1 (stereo not shown) [Example 132]
6,158 nM,Cc1ccc(-c2cc(CC(C(=O)O)c3cccc(C(F)(F)F)c3F)nn2-c2ccc(Cl)c(Cl)c2)cc1 (stereo not shown) [Example 21]
7,12.6 nM,Cc1ccc(-c2cc(CC(C(=O)O)c3cccc4ccccc34)nn2-c2ccc(C)cc2)cc1 (stereo not shown) [Example 167]
8,1000 nM,COc1ccc(-c2cc(C[C@@H](C(=O)O)c3cccc(OC)c3)nn2-c2ccc(OC)cc2)cc1 [Example 31]
9,3.98 nM,O=C(O)/C(=C\c1cc(-c2ccc3ccccc3c2)n(-c2cc(Cl)ccc2Cl)n1)c1cccc(Cl)c1 [Example 112]
10,10 nM,Cc1ccc(-c2cc(CC(C(=O)O)c3cccc(C)c3)nn2-c2ccc(Cl)cc2)cc1 (stereo not shown) [Example 155]
11,20 nM,COc1cccc2cc(-c3cc(CC(C(=O)O)c4cccc(C)c4)nn3-c3ccc(C)cc3)oc12 (stereo not shown) [Example 311]
12,10 nM,Cc1ccc(-c2cc(CC(C(=O)O)c3cccc4ccccc34)nn2Cc2ccccc2)cc1 (stereo not shown) [Example 195]
13,63.1 nM,COc1ccc(-c2cc(C[C@H](C(=O)O)c3cccc(OC)c3)nn2-c2ccc(OC)cc2)cc1 [Example 32]
14,7.94 nM,CCOc1ccc(-n2nc(/C=C(\C(=O)O)c3cccc(Cl)c3)cc2-c2ccc3c(c2)OCO3)cc1 [Example 121]
15,6.31 nM,COc1cccc(C(Cc2cc(-c3ccc(C)cc3)n(-c3ccc(Cl)c(Cl)c3)n2)C(=O)O)c1 (stereo not shown) [Example 42]
